Results: patent publication US8034908B2, “Glycolipids and synthetic method thereof as well as their synthetic intermediates, and synthetic method thereof” (Japan as Represented by President of National Center of …, priority 2003, dated 2011)

Experiments:
[1] = system: Splenocytes; test: Test of production of cytokines by glycolipid derivative (in vitro), mouse splenocytes, ELISA; format: cell-based, C57BL/6 mice; conditions: for IFN-γ / IL-4: glycolipid 100 ng/ml, 72 hours culture, culture supernatant, ELISA
Method: Test of Production of Cytokines by Glycolipid Derivative (In Vitro)
Splenocytes were prepared from the spleens of C57BL/6 mice (6 to 8 weeks old, female) and suspended in a RPMI1640 medium (purchased by Nakarai) containing 10% fetal bovine serum (purchased by GIBCO), 5×10-^5M 2-mercaptoethanol (purchased by GIBCO), 1 mM pyruvate (purchased by SIGMA), and 25 mM HEPE (purchased by SIGMA). These were seeded on a 96-well flat bottom plate (purchased by IWAKI) in an amount of 5×10e5 cells/well and a glycolipid derivative was added to each at a final concentration of 100 ng/ml. The results were cultured at 37° C. in the presence of 5% CO2 for 72 hours, then the culture supernatent was collected. The concentration of the IL-4 and IFN-γ in the culture supernatent were measured by ELISA (BD Pharmingen EIA Kit) (Table 2).

[2] = system: NKT cells; conditions: cited from earlier work
[3] = system: mouse experimental autoimmunological encephalomyelitis (EAE) model; conditions: oral administration; cited from earlier work

CCCCCCCCCCCCCCCCCCCCCCC(=O)N[C@@H](COC1OC(CO)C(O)C(O)C1O)[C@H](O)[C@H](O)CCCC (stereo partly drawn) [Compound 110, 2-tricosanoylamino-1-O-α-D-galactopyranosyl-D-ribo-1,3,4-octanetriol]
IFN-γ [1]: 10614 pg/mL
IL-4 [1]: 226 pg/mL

CCCCCCCCCCCCCCCCCCCCCC(=O)N[C@@H](COC1OC(CO)C(O)C(O)C1O)[C@H](O)[C@H](O)CCC (stereo partly drawn) [Compound 111, 2-docasanoylamino-1-O-α-D-galactopyranosyl-D-ribo-1,3,4-heptanetriol]
IFN-γ [1]: 7413 pg/mL
IL-4 [1]: 256 pg/mL

CCCCCCCCCCCCCCCCCCCCCCC(=O)N[C@@H](COC1OC(CO)C(O)C(O)C1O)[C@H](O)[C@H](O)CC (stereo partly drawn) [Compound 112, 2-tricosanoylamino-1-O-α-D-galactopyranosyl-D-ribo-1,3,4-hexanetriol]
IFN-γ [1]: 5832 pg/mL
IL-4 [1]: 237 pg/mL

CCCCCCCCCCCCCCCCCCCCCC(=O)N[C@@H](COC1OC(CO)C(O)C(O)C1O)[C@H](O)[C@H](O)CCCCCC (stereo partly drawn) [Compound 113, 2-docasanoylamino-1-O-α-D-galactopyranosyl-D-ribo-1,3,4-decanetriol]
IFN-γ [1]: 7967 pg/mL
IL-4 [1]: 251 pg/mL

CCCCCCCCCCCCCCCCCCCCCCC(=O)N[C@@H](CO[C@H]1O[C@H](CO)[C@H](O)[C@H](O)[C@H]1O)[C@H](O)[C@H](O)CCCCCC [Compound 114, 2-tricosanoylamino-1-O-α-D-galactopyranosyl-D-ribo-1,3,4-decanetriol]
IFN-γ [1]: 8067 pg/mL
IL-4 [1]: 225 pg/mL

CCCCCCCCCCCCCCCCCCCCCCCC(=O)N[C@@H](COC1OC(CO)C(O)C(O)C1O)[C@H](O)[C@H](O)CCc1ccccc1 (stereo partly drawn) [Compound 115, 6-phenyl-2-tetracosanoylamino-1-O-α-D-galactopyranosyl-D-ribo-1,3,4-hexanetriol]
IFN-γ [1]: 2481 pg/mL
IL-4 [1]: 137 pg/mL

CCCCCCCCCCCCCCCCCCCCCCCC(=O)N[C@@H](COC1OC(CO)C(O)C(O)C1O)[C@H](O)[C@H](O)CC1CCCC1 (stereo partly drawn) [Compound 116, 5-cyclopentyl-2-tetracosanoylamino-1-O-α-D-galactopyranosyl-D-ribo-1,3,4-pentanetriol]
IFN-γ [1]: 5268 pg/mL
IL-4 [1]: 226 pg/mL

CCCCCCCCCCCCCCCCCCCCCCCC(=O)N[C@@H](COC1OC(CO)C(O)C(O)C1O)[C@H](O)[C@H](O)Cc1ccc(C)cc1 (stereo partly drawn) [Compound 117, 5-(4-methylphenyl)-2-tetracosanoylamino-1-O-α-D-galactopyranosyl-D-ribo-1,3,4-pentanetriol]
IFN-γ [1]: 5485 pg/mL
IL-4 [1]: 181 pg/mL

CCCCCCCCCCCCCCOc1ccc(CCCCC(=O)N[C@@H](COC2OC(CO)C(O)C(O)C2O)[C@H](O)[C@H](O)CCCCC)cc1 (some centres unmarked) [Compound 127]
IFN-γ [1]: 2506 pg/mL
IL-4 [1]: 159 pg/mL

CCCCCCCCCCCCCCCCCCCCCCCC(=O)N[C@@H](CO[C@H]1O[C@H](CO)[C@H](O)[C@H](O)[C@H]1O)[C@H](O)[C@H](O)CCCCC.O [Compound 129, 2-tetracosanoylamino-1-O-α-D-galactopyranosyl-D-ribo-1,3,4-nonanetriol 1-hydrate]
IFN-γ [1]: 7179 pg/mL
IL-4 [1]: 232 pg/mL

CCCCCCCCCCCCCCCCCCCCCCCC(=O)N[C@@H](COC1OC(CO)C(O)C(O)C1O)[C@H](O)[C@H](O)CCCCC (some centres unmarked) [OCH]
Cytokines produced by NKT cells (in words) [2]: more selectively promotes the production of IL-4
Effect in EAE model (in words) [3]: effected in oral administration

CCCCCCCCCCCCCCCCCCCCCCCCCC(=O)N[C@@H](CO[C@H]1O[C@H](CO)[C@H](O)[C@H](O)[C@H]1O)[C@H](O)[C@H](O)CCCCCCCCCCCCCC [α-Galcer, (2S,3S,4R)-1-O-(α-D-galactosyl)-2-(N-hexacosanoylamino)-1,3,4-octadecanetriol, reference compound]
IFN-γ producing activity (in words) ([1]; compared with α-GalCer, Table 2): IFN-γ was produced remarkably dominantly
IFN-γ [1]: 21900 pg/mL
IL-4 [1]: 201 pg/mL
Cytokines produced by NKT cells (in words) [2]: causes NKT cells to produce IFN-γ and IL-4
